Results published in PMC2671622 (Journal of Experimental Botany, 2009).

Target: truncated recombinant AtGABA-T (no-target GABA-T) (Arabidopsis thaliana, UniProt Q94CE5)
Test: coupled SSADH assay, NADH at […] nm
Type: biochemical

truncated recombinant AtGABA-T (no-target GABA-T), sequence (Q94CE5 37-504): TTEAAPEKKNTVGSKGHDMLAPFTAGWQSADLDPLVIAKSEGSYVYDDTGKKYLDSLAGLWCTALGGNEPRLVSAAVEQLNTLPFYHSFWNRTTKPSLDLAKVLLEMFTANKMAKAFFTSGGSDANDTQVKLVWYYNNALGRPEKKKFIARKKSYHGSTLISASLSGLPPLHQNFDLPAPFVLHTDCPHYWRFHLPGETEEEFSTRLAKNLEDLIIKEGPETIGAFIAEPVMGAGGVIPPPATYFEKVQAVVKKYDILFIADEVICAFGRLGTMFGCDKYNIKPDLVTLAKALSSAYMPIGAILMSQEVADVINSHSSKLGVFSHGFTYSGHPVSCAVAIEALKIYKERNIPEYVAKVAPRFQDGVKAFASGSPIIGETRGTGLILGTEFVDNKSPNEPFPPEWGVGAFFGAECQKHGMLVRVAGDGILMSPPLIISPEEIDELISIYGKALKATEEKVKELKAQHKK

NCC(=O)O [Glycine]
Ki: 3700 ± 460 µM

NCCC[C@H](N)C(=O)O [Ornithine]
Ki: 460 ± 120 µM

C=CC(N)CCC(=O)O (stereo not shown) [Vigabatrin]
Ki: 620 ± 160 µM

NCCC(=O)O [β-Alanine]
Ki: 550 ± 130 µM
